Data from patent publication US20250326865A1, “C-MET PROTEIN-BINDING PEPTIDE COMPLEX” (PeptiDream Inc., priority 2021, published 2025).
Starred links: 1 amine or outer side, 2 acyl side, 3 side chain; linkers in the order of their positions; H or OH if unused. Positions of bridges follow the written chain, without caps; N, C: chain ends. Non-standard residues stand in square brackets, D forms with d. Residues, ends and D or L forms follow the SMILES beside them. Primed or numbered codes have the meaning given here. Chains are numbered I, II in the order given. No end group written: not given here. X1 = O=C(OCCOCCOCCOCCOCCOCCOCCOCCOCCOCCOCCOCCOC(=O)[*:2])[*:1]; NMeF = CN[C@@H](Cc1ccccc1)C(=O)O; Ahp(2) = CCCCC[C@H](N)C(=O)O; NMeC = CN[C@@H](CS)C(=O)O; Ahp′ = not defined here

What was measured:
Type in all cases: cell-based
[1] = biological target: T1, HGF R (Homo sapiens, UniProt P08581); test: Human Phospho-RTK array assay in A431 cells; conditions: 10 minutes of stimulation, 2 nM complex, 7.8 nM HGF
T1 construct: endogenous in cells; host or cells: A431
Description: A431 cells were cultured in DMEM high glucose, GlutaMAX (registered trademark) Supplement, pyruvate (Thermo Fisher Scientific), containing 10% FBS (Gibco). After cells were detached using Accutase (registered trademark) (Innovative cell technologies), they were seeded into a 6-well plate at 1000000 cells per well and cultured overnight.
The next day, for starvation, the culture medium was changed to DMEM high glucose, GlutaMAX (registered trademark) Supplement, pyruvate (Thermo Fisher Scientific), containing an assay medium (0.1% BSA (Sigma-Aldrich)), and the cells were cultured overnight. Then, 7.8 nM Recombinant Human HGF Protein (R&D systems) or 2 nM complex (GFs_c-Met 00014336-PEG9 dimer; peptide complex No. 51 in Table 4) of peptide (SEQ ID NO: 34) synthesized in Example 2 and a linker (SEQ ID NO: 36) was added, and after 10 minutes of stimulation, cells were lysed in a Lysis Buffer provided in the Proteome Profiler Human Phospho-RTK Array Kit (R & D systems). Thereafter, the procedure was performed according to the protocol of the kit, and chemiluminescent signals by WesternSure (registered trademark) PREMIUM chemiluminescent substrate kit (LI-COR) were detected using C-DiGit (registered trademark) (Scrum).
In (2) in FIG. 5, a is the result of no addition, b is of addition of HGF, and c of addition of the peptide complex.

[2] = test system: Renal proximal tubule epithelial cells (RPTEC); test: Evaluation of tube formation in collagen gel
Description: Renal proximal tubule epithelial cells (RPTEC) were cultured in a growth medium (Renal Epithelial Cell Basal Medium (REBM)+0.5% FBS+2.4 mM L-Alanyl-L-Glutamine+10 nM Triiodothyronine+10 ng/mL rh EGF+100 ng/mL Hydrocortisone Hemisuccinate+5 μg/mL rh Insulin+1 μM Epinephrine+5 μg/mL Transferrin) (ATCC). The cells were detached using Trypsin-EDTA, and then resuspended in an assay medium (REBM+0.5% FBS+2.4 mM L-Alanyl-L-Glutamine+10 nM Triiodothyronine+100 ng/mL Hydrocortisone Hemisuccinate+1 μM Epinephrine+5 μg/mL Transferrin+1.8 mM CaCl2).
RPTECs were resuspended in a mixture of Cellmatrix (registered trademark) Type I-A (Nitta Gelatin Inc.), concentrated culture solution (Nitta Gelatin Inc.) and a reconstitution buffer solution (Nitta Gelatin Inc.) on ice according to the instructions. […]
To the assay medium, 2 nM HGF, 1.6 nM EGF or a complex GFs_c-Met-00014336-PEG13 dimer; peptide complex No. 49 in Table 4) of a peptide (SEQ ID NO: 34) synthesized in Example 2 and a linker (SEQ ID NO: 37) at 0.08, 0.4, 2, and 10 nM, was added and 400 μL of each resultant mixture was added to each well of 48-well plate to which the gelated suspension had been added as mentioned above. […] The presence or absence of tube formation was observed and evaluated using a phase-contrast microscope on the third day and the eighth day of the start of the culturing.

[3] = test system: Normal human umbilical vein vascular endothelial cells (HUVECs); conditions: HUVEC, cultured for 2 days after addition, FIG. 2; read-out: EC50 (HUVEC cell proliferation)
Description: In order to evaluate the biological activity of the peptide complex of the present invention, the cell proliferation inducing activity was verified. Normal human umbilical vein vascular endothelial cells (HUVECs) were cultured using HuMedia-EG2 (KURABO INDUSTRIES LTD.). After cells were detached using Accutase (Innovative cell technologies), they were resuspended in a Medium without serum or growth factors (Cell system) containing 5% FBS (MBL), seeded into a 96-well plate at 10000 cells per well, and cultured overnight. The next day, a complex (GFs_c-Met-00014336-PEG13 dimer; peptide complex no. 49 in Table 4) of the peptide (SEQ ID NO: 34) synthesized in Example 2 and a linker (SEQ ID NO: 37), or Recombinant Human HGF Protein (R&D systems) as a control was added and cultured for another 2 days. The medium was then removed and the cell count was determined quantitatively using the CellTiter-Glo (registered trademark) Luminescent Cell Viability Assay reagent (Promega) according to the protocol provided. A SpectraMax (registered trademark) Paradigm (registered trademark) multimode microplate reader (Molecular Devices, LLC.) was used for detection. The obtained signal value was analyzed by GraphPad Prism, and EC50 was calculated.

[4] = biological target: T2, c-Met (Homo sapiens, UniProt P08581); test: Phospho-c-Met AlphaLISA assay (c-Met agonist activity) in A431 cells; conditions: phospho-c-Met AlphaLISA, A431 cells, FIG. 1; read-out: EC50 (c-Met agonist activity)
T2 construct: endogenous in cells; host or cells: A431 (human)
Description: To evaluate the activation potency (c-Met agonist activity) of c-Met of the peptide complex of the present invention, the phosphorylation of c-Met was verified. Human A431 cells were cultured in DMEM high glucose, GlutaMAX (registered trademark) Supplement, pyruvate (Thermo Fisher Scientific), containing 10% FBS (Gibco). After cells were detached using Accutase (Innovative cell technologies), they were seeded into a 96-well plate at 10000 cells per well and cultured overnight. The next day, for starvation, the culture medium was changed to DMEM high glucose, GlutaMAX (registered trademark) Supplement, pyruvate (Thermo Fisher Scientific), containing 0.1% BSA (Sigma-Aldrich), and the cells were cultured overnight. Then, the peptide complex synthesized in Example 3 or Recombinant Human HGF Protein (R&D systems) as a control was added, and after 15 minutes of stimulation, cells were lysed in a Lysis Buffer provided in the AlphaLISA (registered trademark) SureFire (registered trademark) Ultra™ Phospho-c-Met (Tyr1234/1235) kit (PerkinElmer). The assay was performed according to the kit protocol, and a SpectraMax (registered trademark) Paradigm (registered trademark) multimode microplate reader (Molecular Devices, LLC.) was used for signal detection. […] In the same manner, the C50 value was calculated by GraphPad Prism as the concentration of peptide showing 50% activity of the signal induced by HGF. […] Further, for a complex (GFs_c-Met-00014336-PEG13 dimer; complex no. 49 in Table 4) of a peptide (SEQ ID NO: 34) and a linker (SEQ ID NO: 37), a graph of c-Met agonist activity is shown in FIG. 1.

T1 sequence (P08581 25-1390): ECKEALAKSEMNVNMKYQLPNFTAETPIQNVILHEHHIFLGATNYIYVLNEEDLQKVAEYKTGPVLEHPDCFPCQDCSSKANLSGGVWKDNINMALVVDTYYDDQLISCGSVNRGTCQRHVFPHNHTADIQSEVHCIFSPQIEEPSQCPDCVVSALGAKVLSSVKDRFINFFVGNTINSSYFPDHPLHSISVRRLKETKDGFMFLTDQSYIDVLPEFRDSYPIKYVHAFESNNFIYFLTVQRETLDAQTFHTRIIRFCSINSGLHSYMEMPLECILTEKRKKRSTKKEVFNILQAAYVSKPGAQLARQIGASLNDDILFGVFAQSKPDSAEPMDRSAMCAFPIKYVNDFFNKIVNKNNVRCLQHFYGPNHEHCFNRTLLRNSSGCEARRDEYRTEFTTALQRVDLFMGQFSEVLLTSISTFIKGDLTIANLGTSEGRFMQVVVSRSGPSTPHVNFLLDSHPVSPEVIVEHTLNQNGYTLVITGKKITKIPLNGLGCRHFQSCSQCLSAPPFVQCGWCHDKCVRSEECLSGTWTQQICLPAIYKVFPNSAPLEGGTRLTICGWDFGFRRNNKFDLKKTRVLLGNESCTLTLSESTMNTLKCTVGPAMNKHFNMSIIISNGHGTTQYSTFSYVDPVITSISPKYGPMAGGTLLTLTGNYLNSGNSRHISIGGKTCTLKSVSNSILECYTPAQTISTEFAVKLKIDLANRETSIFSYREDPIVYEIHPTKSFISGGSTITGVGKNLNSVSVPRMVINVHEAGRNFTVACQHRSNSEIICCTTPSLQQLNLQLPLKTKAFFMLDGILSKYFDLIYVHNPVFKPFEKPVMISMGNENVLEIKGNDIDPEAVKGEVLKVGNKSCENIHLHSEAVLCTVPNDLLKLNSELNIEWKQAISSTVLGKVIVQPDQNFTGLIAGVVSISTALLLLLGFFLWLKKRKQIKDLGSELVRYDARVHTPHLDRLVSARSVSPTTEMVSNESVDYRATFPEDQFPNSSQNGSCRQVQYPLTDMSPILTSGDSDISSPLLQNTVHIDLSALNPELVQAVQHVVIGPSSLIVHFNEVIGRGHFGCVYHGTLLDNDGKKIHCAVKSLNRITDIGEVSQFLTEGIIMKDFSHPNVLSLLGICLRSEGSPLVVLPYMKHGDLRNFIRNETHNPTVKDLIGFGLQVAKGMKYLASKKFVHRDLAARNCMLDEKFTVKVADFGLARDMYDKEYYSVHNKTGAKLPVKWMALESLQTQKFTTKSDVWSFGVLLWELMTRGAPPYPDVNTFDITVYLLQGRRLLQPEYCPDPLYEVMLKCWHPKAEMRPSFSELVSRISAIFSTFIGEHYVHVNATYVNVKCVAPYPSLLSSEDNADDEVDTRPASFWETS
T2 sequence (P08581 25-1390): as above

Compound	specific phosphorylation pattern of receptor tyrosine kinases [1]	tube formation ([2]; RPTEC in collagen gel, 0.08-10 nM, third and eighth day, phase-contrast microscope)	tube formation with branching ([2]; RPTEC, 10 nM complex, eighth day (f of FIG. 4))	EC50 [3]	EC50 [4]
51 ({CH2CO}-[NMeF]TAVS[NMeF]DED[Ahp′]PRWS[NMeC]; thioether N-15 (inferred); not fully specified; reading uncertain; also: conjugated moiety via linker) [compound 51]	Only HGF R was specifically phosphorylated				
CCCCC[C@@H]1NC(=O)[C@H](CC(=O)O)NC(=O)[C@H](CCC(=O)O)NC(=O)[C@H](CC(=O)O)NC(=O)[C@H](Cc2ccccc2)N(C)C(=O)[C@H](CO)NC(=O)[C@H](C(C)C)NC(=O)[C@H](C)NC(=O)[C@H]([C@@H](C)O)NC(=O)[C@H](Cc2ccccc2)N(C)C(=O)CSC[C@@H](C(=O)NCC(=O)N[C@@H](CCCCNC(=O)OCCOCCOCCOCCOCCOCCOCCOCCOCCOCCOCCOCCOC(=O)NCCCC[C@H](NC(=O)CNC(=O)[C@@H]2CSCC(=O)N(C)[C@@H](Cc3ccccc3)C(=O)N[C@@H]([C@@H](C)O)C(=O)N[C@@H](C)C(=O)N[C@@H](C(C)C)C(=O)N[C@@H](CO)C(=O)N(C)[C@@H](Cc3ccccc3)C(=O)N[C@@H](CC(=O)O)C(=O)N[C@@H](CCC(=O)O)C(=O)N[C@@H](CC(=O)O)C(=O)N[C@@H](CCCCC)C(=O)N3CCC[C@H]3C(=O)N[C@@H](CCCNC(=N)N)C(=O)N[C@@H](Cc3c[nH]c4ccccc34)C(=O)N[C@@H](CO)C(=O)N2C)C(N)=O)C(N)=O)N(C)C(=O)[C@H](CO)NC(=O)[C@H](Cc2c[nH]c3ccccc23)NC(=O)[C@H](CCCNC(=N)N)NC(=O)[C@@H]2CCCN2C1=O [compound 49] (I: {CH2CO}-[NMeF]TAVS[NMeF]DED[Ahp(2)]PRWS[NMeC]GK-NH2 / II: {CH2CO}-[NMeF]TAVS[NMeF]DED[Ahp(2)]PRWS[NMeC]GK-NH2; linker I:17-II:17 via X1 (inferred); thioether I:N-I:15, II:N-II:15 (inferred); C-terminus assumed)		promoted tube formation	not only tube formation but also branch formation was promoted	0.55 nM	
HGF: Recombinant Human HGF Protein (R&D systems), hepatocyte growth factor, used as a control	Only HGF R was specifically phosphorylated			0.37 nM	0.66 nM
